Source: US7709498B2, “Quinoline derivatives as antibacterial agents” (Janssen Pharmaceutica N.V., priority 2005, dated 2010)
In brackets after ≈: the same amount, converted by molar mass.

Assays:
Assay type in all cases: cell-based
[1] = test system: Listeria monocytogenes (ATCC49594); experiment: Microtitre plate assay, IC90 determination, LMO 49594; settings: Listeria monocytogenes, ATCC49594, 24 h, 90% inhibitory concentration for bacterial growth, 37° C., resazurin fluorescence, read-out: IC90 (μg/ml) LMO 49594
Method: (§1) The bacteria used in this study were grown overnight in flasks containing 100 ml Mueller-Hinton Broth (Becton Dickinson—cat. no. 275730) in sterile de-ionized water, with shaking, at 37° C. Stocks (0.5 ml/tube) were stored at −70° C. until use. Bacteria titrations were performed in microtiter plates to detect the TCID50, in which the TCID50 represents the dilution that gives rise to bacterial growth in 50% of inoculated cultures.
(§2) In general, an inoculum level of approximately 100 TCID50 was used for susceptibility testing.
(§3) Flat-bottom, sterile 96-well plastic microtiter plates were filled with 180 μl of sterile deionized water, supplemented with 0.25% BSA. Subsequently, stock solutions (7.8× final test concentration) of compounds were added in 45 μl volumes in column 2. Serial five-fold dilutions (45 μl in 180 μl) were made directly in the microtiter plates from column 2 to reach column 11. Untreated control samples with (column 1) and without (column 12) inoculum were included in each microtiter plate. Depending on the bacteria type, approximately 10 to 60 CFU per well of bacteria inoculum (100 TCID50), in a volume of 100 μl in 2.8× Mueller-Hinton broth medium, was added to the rows A to H, except column 12. The same volume of broth medium without inoculum was added to column 12 in row A to H. The cultures were incubated at 37° C. for 24 hours under a normal atmosphere (incubator with open air valve and continuous ventilation). At the end of incubation, one day after inoculation, the bacterial growth was quantitated fluorometrically. Therefore resazurin (0.6 mg/ml) was added in a volume of 20 μl to all wells 3 hours after inoculation, and the plates were re-incubated overnight. A change in colour from blue to pink indicated the growth of bacteria. The fluorescence was read in a computer-controlled fluorometer (Cytofluor Biosearch) at an excitation wavelength of 530 nm and an emission wavelength of 590 nm. The % growth inhibition achieved by the compounds was calculated according to standard methods. The IC90 (expressed in μg/ml) was defined as the 90% inhibitory concentration for bacterial growth.
(§4) BSU 3639 means Bacillus subtilis (ATCC43639); ECO 25922 means Escherichia coli (ATCC25922); EFA 14506 means Enterococcus faecalis (ATCC14506); EFA 29212 means Enterococcus faecalis (ATCC29212); LMO 49594 means Listeria monocytogenes (ATCC49594); PAE 27853 means Pseudomonas aeruginosa (ATCC27853); SMU 33402 means Streptococcus mutans (ATCC33402); SPN 6305 means Streptococcus pneumoniae (ATCC6305); SPY 8668 means Streptococcus pyogens (ATCC8668); STA 43300 means Staphylococcus aureus (ATCC43300); STA 25923 means Staphylococcus aureus (ATCC25923); STA 29213 means Staphylococcus aureus (ATCC29213); STA RMETH means methicilline resistant Staphylococcus aureus (MRSA) (a clinical isolate from the University of Antwerp). ATCC means American type tissue culture.

[2] = test system: Streptococcus pneumoniae (ATCC6305); experiment: Microtitre plate assay, IC90 determination, SPN 6305; settings: 90% inhibitory concentration for bacterial growth, 37° C., resazurin fluorescence; for IC90 (μg/ml) SPN 6305: 24 hours; for IC90: Streptococcus pneumoniae, ATCC6305, 24 h, read-out: IC90 (μg/ml) SPN 6305
Method: as §1, §2, §3, §4

[3] = test system: Streptococcus pyogens (ATCC8668); experiment: Microtitre plate assay, IC90 determination, SPY 8668; settings: Streptococcus, ATCC8668, 24 h, 90% inhibitory concentration for bacterial growth, 37° C., resazurin fluorescence, read-out: IC90 (μg/ml) SPY 8668
Method: as §1, §2, §3, §4

[4] = test system: Streptococcus mutans (ATCC33402); experiment: Microtitre plate assay, IC90 determination, SMU 33402; settings: Streptococcus mutans, ATCC33402, 24 h, 90% inhibitory concentration for bacterial growth, 37° C., resazurin fluorescence, read-out: IC90 (μg/ml) SMU 33402
Method: as §1, §2, §3, §4

| SMILES | IC90 [1] [µg/mL] | IC90 [2] [µg/mL] | IC90 [4] [µg/mL] | also measured |
| --- | --- | --- | --- | --- |
| COc1nc2ccccc2cc1C(c1ccccc1)C(O)(CCN(C)C)c1ccccc1 (stereo not drawn) [Compound 41] | 17 (≈ 39.9 µM) |  |  |  |
| COc1nc2ccc(Br)cc2cc1C(c1ccccc1)C(O)(CCN1CCCCC1)c1ccccc1 (stereo not drawn) [Compound 47] |  |  |  | IC90 (μg/ml) SPN 6305 [2]: 6.9 µg/mL (≈ 12.6 µM) |
| COc1nc2ccc(Br)cc2cc1C(c1ccccc1)C(O)(CCN(C)C)c1cc(F)ccc1F (stereo not drawn) [Compound 67] | 10.8 (≈ 19.9 µM) | 13.6 (≈ 25.1 µM) |  |  |
| COc1nc2ccc(Br)cc2cc1C(c1ccc(C)cc1)C(O)(CCN(C)C)c1cccc2ccccc12 (stereo not drawn) [Compound 72] |  | 14.3 (≈ 25.1 µM) | 9 (≈ 15.8 µM) | IC90 [3]: 11.4 µg/mL (≈ 20 µM) |
| COc1nc2ccc(Br)cc2cc1C(c1ccc(Cl)cc1)C(O)(CCN(C)C)c1cccc2ccccc12 (stereo not drawn) [Compound 73] |  |  | 11.8 (≈ 20 µM) | IC90 [3]: 14.8 µg/mL (≈ 25.1 µM) |
| COc1nc2ccc(Br)cc2cc1C(c1ccccc1)C(O)(CCN(C)C)c1ccc2c(c1)OCCO2 (stereo not drawn) [Compound 78] |  |  | 11.2 (≈ 19.9 µM) | IC90 [3]: 11.2 µg/mL (≈ 19.9 µM); IC90 (μg/ml) SPN 6305 [2]: 11.2 µg/mL (≈ 19.9 µM) |
| COc1nc2ccc(-c3ccccc3)cc2cc1C(c1ccccc1)C(O)(CCN(C)C)c1cccc2ccccc12 (stereo not drawn) [Compound 84] | 11 (≈ 19.9 µM) | 7 (≈ 12.7 µM) | 11 (≈ 19.9 µM) | IC90 [3]: 11 µg/mL (≈ 19.9 µM) |
| COc1nc2ccc(Br)cc2cc1C(c1ccccc1)C(O)(CCN(C)C)c1cccc(F)c1 (stereo not drawn) [Compound 108] |  |  |  | IC90 (μg/ml) SPN 6305 [2]: 13.1 µg/mL (≈ 25 µM) |
| COc1nc2ccc(Br)cc2cc1C(c1ccccc1)C(O)(CCN(C)C)c1cccc(F)c1F (stereo not drawn) [Compound 113] | 10.8 (≈ 19.9 µM) | 13.6 (≈ 25.1 µM) |  |  |
| COc1nc2ccc(Br)cc2cc1C(c1ccccc1)C(O)(CCN(C)C)c1cc(F)cc(F)c1 (stereo not drawn) [Compound 116] | 10.8 (≈ 19.9 µM) |  |  |  |
| COc1nc2ccc(Br)cc2cc1C(c1ccccc1)C(O)(CCN1CCCCC1)c1ccc2ccccc2c1 (stereo not drawn) [Compound 128] | 9.4 (≈ 15.8 µM) |  |  |  |
| COc1nc2ccc(Br)cc2cc1C(c1ccccc1)C(O)(CCN1CCCCC1)c1ccc2ccccc2c1 (stereo not drawn) [Compound 129] |  | 15 (≈ 25.2 µM) | 11.9 (≈ 20 µM) | IC90 [3]: 11.9 µg/mL (≈ 20 µM) |
| COc1nc2ccc(Br)cc2cc1C(c1ccccc1)C(O)(CCN(C)C)c1ccc2c(Br)cccc2c1 (stereo not drawn) [Compound 130] |  |  | 10.1 (≈ 15.9 µM) |  |
| COc1ccc2cc(C(O)(CCN(C)C)C(c3ccccc3)c3cc4cc(Br)ccc4nc3OC)ccc2c1 (stereo not drawn) [Compound 163] |  | 14.7 (≈ 25.1 µM) |  |  |
| COc1nc2ccc(Br)cc2cc1C(c1ccccc1)C(O)(CCN1CCCCC1)c1ccc2cc(Br)ccc2c1 (stereo not drawn) [Compound 166] |  | 16.9 (≈ 25.1 µM) |  |  |

Now from value to compound, other results behind:

| IC90 [1] [µg/mL] | IC90 [2] [µg/mL] | IC90 [4] [µg/mL] | SMILES | also measured |
| --- | --- | --- | --- | --- |
|  | 26 (≈ 44.7 µM) |  | COc1nc2ccc(Br)cc2cc1C(c1ccccc1)C(O)(CCN1CCCC1)c1ccc2ccccc2c1 (stereo not drawn) [Compound 170] |  |
| 10.2 (≈ 20 µM) |  |  | COc1nc2ccc(-c3ccco3)cc2cc1C(c1ccccc1)C(O)(CCN(C)C)c1cccc(F)c1 (stereo not drawn) [Compound 174] |  |
|  |  | 10.8 (≈ 19.9 µM) | COc1nc2ccc(Br)cc2cc1C(c1ccccc1)C(O)(CCN(C)C)c1ccc(F)c(F)c1 (stereo not drawn) [Compound 196] |  |
|  | 12.8 (≈ 22.3 µM) |  | COc1nc2ccc(Br)cc2cc1C(c1ccc(F)cc1)C(O)(CCN(C)C)c1cccc2ccccc12 (stereo not drawn) [Compound 206] |  |
|  | 15.1 (≈ 22.4 µM) |  | COc1nc2ccc(Br)cc2cc1C(c1ccccc1)C(O)(CCN1CCN(c2ncccn2)CC1)c1ccc2ccccc2c1 (stereo not drawn) [Compound 209] |  |
|  | 4.9 (≈ 9.97 µM) |  | CNCCC(O)(c1ccccc1)C(c1ccccc1)c1cc2cc(Br)ccc2nc1OC (stereo not drawn) [Compound D] |  |
| 13.6 (≈ 25.1 µM) | 13.6 (≈ 25.1 µM) |  | COc1nc2ccc(-c3ccco3)cc2cc1C(c1ccccc1)C(O)(CCN(C)C)c1cccc2ccccc12 (stereo not drawn) [Compound H] |  |
|  | 11.6 (≈ 19.9 µM) |  | COc1nc2ccc(Br)cc2cc1C(c1ccccc1)C(O)(CCN(C)C)c1ccc2c3c(cccc13)CC2 (stereo not drawn) [Compound I] |  |
